Laboratory results published in patent US10738062B2, “Chromane-substituted tetracyclic compounds and uses thereof for the treatment of viral diseases” (Merck Sharp & Dohme Corp., priority 2016, dated 2020).
Read-outs that look alike come from different tables or passages of the source.

Columns and labels:
Parameters in all cases: species or system Hepatitis C virus
HCV replicon 1A Y93H = test: Cell-based HCV replicon assay (Replicon Assay A), replicon 1AY93H; conditions: replicon RNA by real time PCR, day 3
Outline: (§1)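 Replicon cells were seeded at 2000/well with compound, 10 serial dilutions starting at 333.3 nM to 1.667 nM, in 0.5% DMSO and 5% FBS, then harvested on day 3. Replicon RNA was measured by multiplex TaqMan RT-PCR with cyclophilin as endogenous control. EC50 is the concentration raising Ct by 1 over projected baseline.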

HCV replicon 2B = test: Cell-based HCV replicon assay (Replicon Assay A), replicon 2B; conditions: replicon RNA by real time PCR, day 3
Outline: as §1

HCV replicon 1A = test: Cell-based HCV replicon assay (Replicon Assay A), replicon 1A; conditions: replicon RNA by real time PCR, day 3
Outline: as §1

HCV replicon 1B = test: Cell-based HCV replicon assay (Replicon Assay B), replicon 1B; conditions: replicon RNA by real-time PCR, 3 days
Experimental: In an alternate assay (“Replicon Assay B”), 1000 cells were seeded per well in a 384-well collagen coated black plate from Greiner bio-one (Cat #781946) in 5% FBS. Inhibitors of this invention were added at 24 h post-seeding, and the plates were incubated for 3 days. Cells were subsequently lysed with Qiagen lysis buffer (Cat #1062731) to extract the RNA. HCV replicon RNA level was measured by real-time PCR using the RNA-to-CT kit from Applied Biosystem (Cat #4392656) and genotype-specific primers and probes. The amplicon was located within NS5B. […] (SEQ. ID NO. 2); the probe sequence was FAM-labeled […] (SEQ. ID NO. 3).
The real-time RT-PCR reactions were run on ABI PRISM 7900HT or Viia7 Sequence Detection System using the following program: 48° C. for 30 minutes, 95° C. for 10 minutes, 40 cycles of 95° C. for 15 sec, 60° C. for 1 minutes.
EC50 data for replicons 1A, 1AY93H and 2B were obtained using Replicon Assay A and EC50 data for replicon 1B was obtained using Replicon Assay B.

[1] = Hepatitis C virus, 72 h, read-out: EC50 replicon 1A Y93H, Replicon Assay A
[2] = read-out: EC50 replicon 2B, Replicon Assay A
[3] = read-out: EC50 replicon 1A Y93H, Replicon Assay A

SMILES | EC50 (HCV replicon 1A Y93H; [1]) [pM] | EC50 (HCV replicon 2B; [2]) [pM] | EC50 (HCV replicon 1A; Hepatitis C virus, 72 h) [pM] | EC50 (HCV replicon 1B; Hepatitis C virus, 72 h) [pM] | EC50 (HCV replicon 1A Y93H; [3]) [pM] | EC50 (HCV replicon 1A) [pM] | EC50 (HCV replicon 1B) [pM] | EC50 (HCV replicon 2B; Hepatitis C virus, 72 h, read-out: EC50 replicon 2B, Replicon Assay A) [pM]
COC(=O)NC(C(=O)N1CCC[C@H]1c1ncc(-c2ccc3c(c2)cc2n3C(c3ccc4c(c3)OCCC4)Oc3cc(-c4cnc([C@@H]5CCCN5C(=O)[C@@H](NC(=O)OC)C(C)C)[nH]4)cc(F)c3-2)[nH]1)C(C)(C)F (single isomer, unassigned) [Compound 43] | 75 | 81 | 2.2 | 2.3 | – | – | – | –
COC(=O)NC(C(=O)N1CCC[C@H]1c1ncc(-c2ccc3c(c2)cc2n3C(c3ccc4c(c3)OC(C)CC4)Oc3cc(-c4cnc([C@@H]5CCCN5C(=O)[C@@H](NC(=O)OC)C(C)C)[nH]4)cc(F)c3-2)[nH]1)C1C[C@@H](C)O[C@@H](C)C1 (single isomer, unassigned) [Compound 59] | – | 17 | – | 2.7 | 15 | 3.2 | – | –
COC(=O)NC(C(=O)N1[C@@H]2C[C@@H]2C[C@H]1c1ncc(-c2ccc3c(c2)cc2n3C(c3ccc4c(c3)OCCC4)Oc3cc(-c4cnc([C@@H]5CCCN5C(=O)[C@@H](NC(=O)OC)C(C)C)[nH]4)cc(F)c3-2)[nH]1)C1CCOC(C)(C)C1 (single isomer, unassigned) [Compound 70] | – | 12 | – | – | 6 | 2.8 | 2.7 | –
COC(=O)NC(C(=O)N1CCC[C@H]1c1ncc(-c2cc(F)c3c(c2)OC(c2ccc4c(c2)OCCC4)n2c-3cc3cc(-c4cnc([C@@H]5CCCN5C(=O)[C@@H](NC(=O)OC)C5CCOCC5)[nH]4)ccc32)[nH]1)C(C)(C)F (single isomer, unassigned) [Compound 89] | – | 15 | – | – | 17 | 2.1 | 3.1 | –
COC(=O)NC(C(=O)N1[C@@H]2C[C@@H]2C[C@H]1c1ncc(-c2ccc3c(c2)cc2n3C(c3ccc4c(c3)OCCC4)Oc3cc(-c4cnc([C@@H]5CCCN5C(=O)[C@@H](NC(=O)OC)C(C)C)[nH]4)cc(F)c3-2)[nH]1)C1CCOC(C)(C)C1 (single isomer, unassigned) [Compound 69] | 5 | – | 3.2 | 3.5 | – | – | – | 8
COC(=O)NC(C(=O)N1CCC[C@H]1c1ncc(-c2cc(F)c3c(c2)OC(c2ccc4c(c2)OCCC4)n2c-3cc3cc(-c4cnc([C@@H]5CCCN5C(=O)[C@@H](NC(=O)OC)C5CCOCC5)[nH]4)ccc32)[nH]1)C(C)(C)F (single isomer, unassigned) [Compound 87] | – | 133 | – | 3.4 | 528 | 2.3 | – | –
COC(=O)N[C@H](C(=O)N1CCC[C@H]1c1ncc(-c2ccc3c(c2)OC(c2ccc4c(c2)CCCO4)n2c-3cc3cc(-c4cnc([C@@H]5C[C@H]6C[C@H]6N5C(=O)[C@@H](NC(=O)OC)C(C)C)[nH]4)ccc32)[nH]1)C(C)C (single isomer, unassigned) [Compound 51] | – | 4770 | 1.9 | 2.5 | 2130 | – | – | –
COC(=O)NC(C(=O)N1CCC[C@H]1c1ncc(-c2ccc3c(c2)cc2n3C(c3ccc4c(c3)OC(C)CC4)Oc3cc(-c4cnc([C@@H]5CCCN5C(=O)[C@@H](NC(=O)OC)C(C)C)[nH]4)cc(F)c3-2)[nH]1)C1CCOC(C)(C)C1 (single isomer, unassigned) [Compound 63] | – | 16 | – | 2 | 32 | 2.6 | – | –
COC(=O)N[C@H](C(=O)N1CCC[C@H]1c1ncc(-c2ccc3c(c2)OC(c2ccc4c(c2)OCCC4)n2c-3cc3cc(-c4cnc([C@@H]5C[C@H]6C[C@H]6N5C(=O)[C@@H](NC(=O)OC)C(C)C)[nH]4)ccc32)[nH]1)C(C)C (single isomer, unassigned) [Compound 50] | – | 36 | – | 1.4 | 60 | 1.4 | – | –
COC(=O)NC(C(=O)N1CCC[C@H]1c1ncc(-c2cc(F)c3c(c2)OC(c2ccc4c(c2)OCCC4)n2c-3cc3cc(-c4cnc([C@@H]5CCCN5C(=O)[C@@H](NC(=O)OC)C5CCOCC5)[nH]4)ccc32)[nH]1)C(C)(C)F (single isomer, unassigned) [Compound 88] | – | 3110 | – | – | 9930 | 14.9 | 2.6 | –
COC(=O)N[C@H](C(=O)N1CCC[C@H]1c1ncc(-c2cc(F)c3c(c2)OC(c2ccc4c(c2)OCCC4)n2c-3c(F)c3cc(-c4cnc([C@@H]5CCCN5C(=O)[C@@H](NC(=O)OC)C5CCOCC5)[nH]4)ccc32)[nH]1)C(C)C (single isomer, unassigned) [Compound 92] | – | 6 | – | 2.4 | 6 | 1.5 | – | –
COC(=O)N[C@H](C(=O)N1CCC[C@H]1c1ncc(-c2cc(F)c3c(c2)OC(c2ccc4c(c2)OCCC4(F)F)n2c-3cc3cc(-c4cnc([C@@H]5CCCN5C(=O)[C@@H](NC(=O)OC)C(C)C)[nH]4)ccc32)[nH]1)C(C)C (single isomer, unassigned) [Compound 20] | – | 40 | – | 1.4 | 67 | 1.3 | – | –
COC(=O)N[C@H](C(=O)N1CCC[C@H]1c1ncc(-c2cc(F)c3c(c2)OC(c2ccc4c(c2)OCCC4)n2c-3cc3cc(-c4cnc([C@@H]5CCCN5C(=O)[C@@H](NC(=O)OC)C5CCOCC5)[nH]4)ccc32)[nH]1)C(C)C (single isomer, unassigned) [Compound 32] | – | 3 | – | – | 10 | 2.6 | 2.6 | –
COC(=O)N[C@H](C(=O)N1CCC[C@H]1c1ncc(-c2cc(F)c3c(c2)OC(c2ccc4c(c2)OCC4)n2c-3cc3cc(-c4cnc([C@@H]5C[C@H]6C[C@H]6N5C(=O)[C@@H](NC(=O)OC)C(C)C)[nH]4)ccc32)[nH]1)C(C)C (single isomer, unassigned) [Compound 48] | – | 382 | 1.9 | 1.5 | 33 | – | – | –
COC(=O)NC(C(=O)N1CCC[C@H]1c1ncc(-c2ccc3c(c2)cc2n3C(c3ccc4c(c3)OCCC4)Oc3cc(-c4cnc([C@@H]5CCCN5C(=O)[C@@H](NC(=O)OC)C(C)C)[nH]4)cc(F)c3-2)[nH]1)C1C[C@@H](C)O[C@@H](C)C1 (single isomer, unassigned) [Compound 76] | – | 4 | – | 3.2 | 12 | 2.5 | – | –
COC(=O)NC(C(=O)N1[C@@H]2C[C@@H]2C[C@H]1c1ncc(-c2ccc3c(c2)cc2n3C(c3ccc4c(c3)OCCC4)Oc3cc(-c4cnc([C@@H]5CCCN5C(=O)[C@@H](NC(=O)OC)C(C)C)[nH]4)cc(F)c3-2)[nH]1)C1C[C@@H](C)O[C@@H](C)C1 (single isomer, unassigned) [Compound 68] | – | 16 | – | 2.3 | 5 | 1.8 | – | –
